{
  "source": "patent US20080031968A1",
  "about": "“Methods for increasing cellular energy expenditure” (priority 2005, published 2008)",
  "key": {"KK-Ay mice [1]": {"tested_on": "KK-Ay mice", "assay": "CA in KK-Ay mice, body weight, OGTT and IPITT", "type": "in vivo, mouse", "description": "(§1) Male C57BL/6J and KK-Ay mice, 6-7 weeks of age, were obtained from Charles River Laboratories France (l'Arbresle, France) and CLEA Japan Inc. (Tokyo, Japan), respectively. […] All mice were maintained in a temperature-controlled (23° C.) facility with a 12 h light/dark cycle and were given free access to food and water. The control and high-fat diet was obtained from UAR (Villemoison surOrge, France). […] GW4064 was suspended in peanut oil and mixed with the high fat diet at a concentration of 180 mg per kg of food. […] The mice were fasted 4 h before harvesting blood for subsequent blood measurements, and tissues for RNA isolation, lipid measurements and histology. Oxygen consumption was measured using the Oxymax apparatus (Columbus Instruments, Columbus, Ohio).\nAn OGTT was performed in animals that were fasted overnight. Glucose was administered by gavage at a dose of 2 g/kg. An IPITT was done in 4 h fasted animals. Insulin was injected at a dose of 0.75 U/kg. Glucose quantification was done with the Maxi Kit Glucometer 4 (Bayer Diagnostic, Puteaux, France) or Glucose RTU (bioMérieux Inc., Marcy l'Etoile, France). Plasma insulin concentrations were measured using ELISA (Cristal Chem Inc., Downers Grove, Ill.). Nonesterified fatty acids, triglycerides, ketone bodies, BA and total cholesterol were determined by enzymatic assays (Roche, Mannheim, Germany). cAMP was measured using the cAMP-Screen system (Applied Biosystems, Bedford, Mass.)."}, "TGR5": {"biological_target": "T1, TGR5 (Homo sapiens, UniProt Q8TDU6)", "T1 construct": "expressed in transfected cells", "T1 sequence (Q8TDU6 1-330)": "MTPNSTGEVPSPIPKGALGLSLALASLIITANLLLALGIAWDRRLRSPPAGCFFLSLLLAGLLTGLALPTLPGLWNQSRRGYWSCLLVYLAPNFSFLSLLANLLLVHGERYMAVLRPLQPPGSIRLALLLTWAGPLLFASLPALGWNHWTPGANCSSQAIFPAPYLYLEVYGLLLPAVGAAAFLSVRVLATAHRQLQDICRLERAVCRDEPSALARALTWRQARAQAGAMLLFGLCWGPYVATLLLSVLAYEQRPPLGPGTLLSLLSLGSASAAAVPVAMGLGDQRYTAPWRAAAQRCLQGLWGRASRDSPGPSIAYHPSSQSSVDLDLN", "assay": "cAMP response element (CRE)-luciferase reporter assay with TGR5", "type": "cell-based", "conditions": "cells co-transfected with TGR5 expression plasmid and CRE-driven luciferase reporter", "source_text": "Since a synthetic FXRα agonist was unable to phenocopy the effects of BAs on energy expenditure, we focused our attention on FXRα-independent signaling events stimulated by BAs. […] We used a cAMP response element (CRE)-luciferase reporter assay to confirm that TGR5 is a BA receptor.\nWe used quantitative RT-PCR to measure the expression of D2 and TGR5 mRNAs in selected mouse tissues."}, "[2]": {"tested_on": "wild-type and LXRα/β-/- mice", "assay": "CA diet in wild-type and LXRα/β-/- mice", "type": "in vivo, mouse", "conditions": "0.5% CA for 3 days", "description": "(§2) Male C57BL/6J, KK-Ay, and ob/ob (C57BL/6J background) mice, 6-10 weeks of age, were obtained from Elevage Janvier (Le Genest St. Isle, France), CLEA Japan Inc. (Tokyo, Japan), and The Jackson Laboratory (Bar Harbor, Me., USA), respectively. All mice were maintained in a temperature-controlled (23° C.) facility with a 12-hour light/dark cycle and were given free access to food and water. The study protocols were approved by the institutional review boards. The body weight and food intake were measured every second day. The control and high-fat diet was obtained from UAR (Villemoisson sur Orge, France). […] The mice were fasted 4 hours before harvesting blood for subsequent lipid measurements, and tissues for RNA isolation, lipid measurements, and histology.\nTo determine whether LXR is essential for the TG-lowering effect of bile acids, we used LXRα/LXRβ double-knockout mice ([…])."}, "humans": {"tested_on": "humans", "conditions": "cited from earlier work"}, "C57BL/6J mice": {"tested_on": "C57BL/6J mice", "assay": "LXR agonist-induced lipogenesis in C57BL/6J mice with or without CA", "type": "in vivo, mouse", "description": "as §2\nMice were gavaged with the LXR agonist T0901317 or vehicle, and the different diets were continued for one more day, after which the mice were sacrificed."}, "HSMM": {"tested_on": "HSMM", "assay": "cAMP levels in human skeletal muscle myoblasts", "type": "cell-based", "conditions": "1 mM IBMX, 30 minutes", "quoted_text": "HSMM were obtained from Cambrex (Walkersville, Md.) and were cultured according to the suppliers instructions. […] For the cAMP measurements, cells were preincubated 12 h in Opti-MEM (Life Technologies, Cergy Pontoise, France), supplemented with 1 mM IBMX. Then medium was changed and cells were incubated for another 1 h in Opti-MEM with 1 mM IBMX, after which the medium was replaced for Opti-MEM with 1 mM IBMX and the indicated compounds. After 30 minutes the cells were lysed for cAMP analysis."}, "BAT of C57BL/6J mice": {"tested_on": "BAT of C57BL/6J mice", "assay": "BAT gene expression by microarray and Q-RT-PCR", "type": "in vivo, mouse", "quoted_text": "For microarray analysis, RNA was isolated from BAT using the RNeasy mini kit (QIAGEN, Courtaboeuf, France). Equal amounts of RNA from mice in each group were pooled (n=3 or 4 mice) and used for cDNA synthesis. After second-strand cDNA synthesis (Life Technologies, Cergy Pontoise, France), in vitro transcription was performed with biotinylated UTP and CTP (Enzo Diagnostics, Farmingdale, N.Y.). Fragmented cRNA samples were hybridized to the Affymetrix MOE430A microarray. The raw data was analyzed using the Microarray Suite Software version 5.0 (MAS5.0, Affymetrix, Santa Clara, Calif.)."}, "SHP+/+ and SHP-/- mice": {"tested_on": "SHP+/+ and SHP-/- mice", "assay": "FXR agonists in SHP+/+ and SHP-/- mice", "type": "in vivo, mouse", "conditions": "for hepatic expression of SREBP-1c, ME, CYP7A1 and ANGPTL3: 1-day treatment", "description": "as §2"}, "wildtype and D2-/- mice": {"tested_on": "wildtype and D2-/- mice", "assay": "Diet-induced obesity in D2-/- mice and littermate controls", "type": "in vivo, mouse", "description": "as §1\nNext, we used mice with a targeted disruption of the D2 gene (D2−/− mice) and littermate controls in a diet-induced obesity study for 50 days."}, "KK-Ay mice [3]": {"tested_on": "KK-Ay mice", "assay": "In vivo VLDL TG production (Tyloxapol) in KK-Ay mice", "parameters": "species or system mouse", "conditions": "1 week of CA feeding, chow and high-fat diet"}, "mouse SREBP-1c promoter": {"tested_on": "mouse SREBP-1c promoter", "assay": "SREBP-1c promoter luciferase reporter assay in McA-RH7777 cells", "type": "cell-based", "conditions": "McA-RH7777 rat hepatoma cells, LXRα transfection and/or LXR and RXR agonists", "quoted_text": "The LXR response elements in pSREBP-1c324-Luc were mutated for promoter analysis using the Quick Change Site-Directed Mutagenesis Kit (Stratagene, La Jolla, Calif., USA).\nThe rat hepatoma cell line McA-RH7777 was obtained from ATCC (Manassas, Va., USA). […] Transfections were performed in 96-well plates using Lipofectamine 2000 (Invitrogen, Cergy Pontoise, France). Each well contained 64 ng luciferase reporter and 4 ng of β-galactosidase expression plasmid. We transfected 16 ng RXRα, 16 ng LXRα, 16 ng LRH-1, 32 ng SHP expression plasmids, or the corresponding empty expression vectors. After 6 hours of incubation with the DNA-lipofectamine complexes, the transfection medium was exchanged for medium with or without the indicated ligands. Ligands for LXR and RXR were dissolved in ethanol or DMSO and added to the cells in DMEM supplemented with 10% lipoprotein-deficient serum. To suppress SREBP-1c activation by processing, leading to feed-forward induction of SREBP-1c expression, the medium used for the SREBP-1c promoter study was also supplemented with 10 μg/ml cholesterol and 1 μg/ml 25-hydroxycholesterol. Luciferase measurements were normalized to β-galactosidase activity."}, "KK-Ay mice [4]": {"tested_on": "KK-Ay mice", "assay": "CA or GW4064 treatment of KK-Ay mice, serum lipids", "type": "in vivo, mouse", "conditions": "KK-Ay mice; for lowered circulating TG levels / total plasma cholesterol decreased: 1 week", "description": "as §2\n(§3) For measurement of liver TGs and cholesterol content, a liver was homogenized in chloroform/methanol (2:1 v/v) using a Polytron tissue grinder (Kinematica AG, Luzern, Switzerland). Lipid extracts were prepared by the classical Folch method. Extracts were dried under N2 flow and resuspended in isopropanol."}, "KK-Ay mice [5]": {"tested_on": "KK-Ay mice", "assay": "Liver TG and cholesterol content and histology in KK-Ay mice", "type": "in vivo, mouse", "description": "as §2, §3"}, "[6]": {"conditions": "KK-Ay mice, CA added to normal chow diet"}, "[7]": {"conditions": "CA coadministration with T0901317"}, "[8]": {"conditions": "CA feeding, HPLC of lipoproteins"}},
  "data": [
    {"smiles": "C[C@H](CCC(=O)O)[C@H]1CC[C@H]2[C@@H]3[C@H](O)C[C@@H]4C[C@H](O)CC[C@]4(C)[C@H]3C[C@H](O)[C@]12C", "note": "[CA, cholic acid]", "values": [
      {"measurement": "body weight", "setting": "KK-Ay mice [1]; [6]", "result": "decreased body weight"},
      {"measurement": "metabolic control (oral glucose tolerance test, intraperitoneal insulin tolerance test)", "setting": "KK-Ay mice [1]; [6]", "result": "improved metabolic control"},
      {"measurement": "insulin sensitivity", "setting": "KK-Ay mice [1]; KK-Ay mouse", "result": "improve insulin sensitivity"},
      {"measurement": "luciferase expression", "setting": "TGR5", "result": "increased luciferase expression in a dose-dependent manner"},
      {"measurement": "decrease in serum TGs, SREBP-1c and ME", "setting": "[2]; LXRα/β-/- mice", "result": "not observed"},
      {"measurement": "SHP expression", "setting": "[2]; wild-type and LXRα/β-/- animals", "result": "induced significantly"},
      {"measurement": "serum TG", "setting": "[2]; wild-type animals", "result": "decreased serum TG"},
      {"measurement": "hepatotoxicity", "setting": "humans", "result": "significant hepatotoxicity"},
      {"measurement": "SHP expression", "setting": "C57BL/6J mice; [7]", "result": "increased SHP expression"},
      {"measurement": "SREBP-1c and its target genes", "setting": "C57BL/6J mice; [7]", "result": "prevented the induction"},
      {"measurement": "LXR agonist induction of liver weight and serum TGs", "setting": "C57BL/6J mice; coadministration of 0.5% CA with T0901317", "result": "completely prevented"},
      {"measurement": "cAMP levels", "setting": "HSMM", "result": "increased cAMP levels in a dose-dependant fashion"},
      {"measurement": "expression of PGC-1α, PGC-1β, UCP-1, UCP-3, ACO, mCPT-I and D2 in BAT", "setting": "BAT of C57BL/6J mice; C57BL/6J mice fed 47 days, diet mixed with CA, Q-RT-PCR", "result": "significantly increased"},
      {"measurement": "genes involved in control of energy expenditure incl. D2 in BAT (microarray)", "setting": "BAT of C57BL/6J mice; high fat diet mixed with CA or CDCA for 9 days", "result": "upregulated"},
      {"measurement": "serum TGs", "setting": "SHP+/+ and SHP-/- mice; SHP+/+ mice, 0, 3 and 7 days", "result": "significantly lowered"},
      {"measurement": "hepatic expression of SREBP-1c, ME, CYP7A1 and ANGPTL3", "setting": "SHP+/+ and SHP-/- mice; SHP+/+ mice", "result": "significantly reduced"},
      {"measurement": "decrease in serum TGs", "setting": "SHP+/+ and SHP-/- mice; SHP-/- mice", "result": "completely abolished"},
      {"measurement": "hepatic expression of SREBP-1c, ME, CYP7A1 and ANGPTL3", "setting": "SHP+/+ and SHP-/- mice; SHP-/- mice", "result": "no decrease"},
      {"measurement": "development of obesity", "setting": "wildtype and D2-/- mice; D2-/- mice, CA added to high fat diet, 50 days", "result": "no effect"},
      {"measurement": "diet induced obesity", "setting": "wildtype and D2-/- mice; wildtype mice, CA added to high fat diet, 50 days", "result": "prevented diet induced obesity"},
      {"measurement": "expression of PGC-1α in BAT", "setting": "wildtype and D2-/- mice; wildtype mice, CA feeding", "result": "significantly induced"},
      {"measurement": "liver VLDL production", "setting": "KK-Ay mice [3]", "result": "significantly decreased"},
      {"measurement": "increase of SREBP-1c promoter activity", "setting": "mouse SREBP-1c promoter", "result": "attenuated"},
      {"measurement": "HDL cholesterol", "setting": "KK-Ay mice [4]; [8]", "result": "decreasing HDL cholesterol"},
      {"measurement": "VLDL TGs", "setting": "KK-Ay mice [4]; [8]", "result": "decreasing VLDL TGs"},
      {"measurement": "plasma FFAs", "setting": "KK-Ay mice [4]; CA feeding, particularly on high-fat diet", "result": "decreased plasma FFAs"},
      {"measurement": "lowered circulating TG levels", "setting": "KK-Ay mice [4]; high-fat diet with 0.5% CA", "result": 65, "unit": "%"},
      {"measurement": "total plasma cholesterol decreased", "setting": "KK-Ay mice [4]; high-fat diet with 0.5% CA", "result": 35, "unit": "%"},
      {"measurement": "lowered circulating TG levels", "setting": "KK-Ay mice [4]; normal-chow diet with 0.5% CA", "result": 51, "unit": "%"},
      {"measurement": "total plasma cholesterol decreased", "setting": "KK-Ay mice [4]; normal-chow diet with 0.5% CA", "result": 24, "unit": "%"},
      {"measurement": "liver TGs content", "setting": "KK-Ay mice [5]; CA 3 weeks, chow or high-fat diet", "result": "significantly lower"},
      {"measurement": "hepatic cholesterol", "setting": "KK-Ay mice [5]; CA 3 weeks, particularly high-fat diet", "result": "increased hepatic cholesterol"},
      {"measurement": "neutral lipids in liver sections (Oil Red O)", "setting": "KK-Ay mice [5]; high-fat diet with CA, 3 weeks", "result": "accumulated less neutral lipids"}
    ]}
  ]
}
